Patent US20210052537A1, “COLITIS AMELIORATING AGENT” (ASTA PHARMACEUTICALS, CO., LTD., priority 2018, published 2021)
“And” between values parts separate entries of the source, which are not always exact repeats. Equal values may be shown once.

System: DSS-induced colitis
Test: DSS-induced colitis mouse model (experimental ulcerative colitis)
Assay type: in vivo
Design: Colon wet weight: unit not given here
Procedure: In this Example, mouse models to which dextran sulfate sodium salt (DSS) is used will be described as colitis models. When DSS is administered by being mixed in drinking water of the mouse, an experimental ulcerative colitis model similar to human ulcerative colitis in terms of symptoms such as suppression of body weight increase, blood in stools, and anemia and formation of colon erosion and further lacking intestinal lesion was build (Non-Patent Literature 3). A suppression effect of Compound X on colitis in such a model as the representative colitis model was examined. For the evaluation items, recovery from diarrhea and body weight loss by colitis, and the length and weight of the colon were examined as changes in colon properties, which are widely known to occur by DSS-induced colitis.
For treatment, C57BL/6J, male mice were purchased from CHARLES RIVER LABORATORIES JAPAN, INC. in accordance with previous literature (Non-Patent Literature 2) and 5-week old mice with no abnormal general conditions during quarantine and acclimation period were used for the experiment. After acclimation, the animals were divided in such a way as to be 1 mouse per cage. DSS used in the experiment having a molecular weight of from 36,000 to 50,000 Da was purchased from MP Bio Japan. DSS was added to tap water in such a way as to be 3% and suspended for causing colitis. The suspension was prepared once every 3 days and freely provided to each of the mice as water supply. A solution from which DSS was removed was provided as water supply to a non-pathological control group.
After group division, each of the test substances of Table 1 was suspended in a solution of 0.5% sodium carboxymethyl cellulose (hereinafter, CMC, Nacalai Tesque Inc.) in such a way as to be each treatment of Table 1 and orally administered once daily. […] These control groups, Groups 1 and 2, were orally administered, as the test substance, with the 0.5% CMC solution used as the medium.
Drinking water after the group division was typical water for drinking.
The test started with 6 mice in Group No. 1 and 10 mice each in Group Nos. 2 to 6.
Body weights were measured on the DSS administration starting day (day −5), DSS administration last day (day 0), on day 3, day 5, day 8, and day 10 of test substance administration.
The therapeutic effect was evaluated by observing changes in blood in stools caused by enteritis as the body weight recovery alone can be considered that the body weight increase might have been promoted simply by the growth. Mice feces were observed on the DSS administration starting day (day-5), DSS administration last day (day 0), on day 3, day 5, day 8, and day 10 of test substance administration and scored in accordance with the criteria of Table 2.
For evaluating the therapeutic effect of Compound X, the length and weight of the colon were measured. The mice were euthanized under anesthesia on day 10 of test substance administration and dissected to remove the colon. The removed colon was quickly measured for a length in a relaxed state. Subsequently, feces in the intestinal tract were removed and sufficiently washed with phosphate buffered saline (Wako Pure Chemical Industries, Ltd.) and measured for a wet weight.

[1] = DSS + 1 mg/kg/day oral, day 10, mean ± SD
[2] = DSS + 10 mg/kg/day oral, day 10, mean ± SD
[3] = DSS + 100 mg/kg/day oral, day 10, mean ± SD

## CC1=C(/C=C/C(C)=C/C=C/C(C)=C/C=C/C=C(C)/C=C/C=C(C)/C=C/C2=C(C)C(=O)[C@@H](OC(=O)CNC(=O)NCCCC(=O)O)CC2(C)C)C(C)(C)C[C@H](OC(=O)CNC(=O)NCCCC(=O)O)C1=O.NCCCC[C@H](N)C(=O)O.NCCCC[C@H](N)C(=O)O [Compound X, 4-(3-{4-[18-(4(S)-[3-(3-Carboxypropyl)ureidoacetoxy]-2,6,6-trimethyl-3-oxocyclohexa-1-enyl)-3,7,12,16-tetramethyloctadeca-1(E),3(E),5(E),7(E),9(E),11(E),13(E),15(E),17(E)-nonaenyl]-3,5,5-trimethyl-2-oxocyclohex-3-enyl-1(S)-oxycarbonylmethyl}ureido)butyric acid dilysine salt]
100 mg/kg/day oral, day 5 of test substance administration, in words
  Blood feces score versus DSS administration group: improved blood feces score
100 mg/kg/day oral, in words
  Body weight recovery compared with the DSS administration only: body weight recovery was even further significant
DSS + 1 mg/kg/day oral, day 0 (DSS last day), mean ± SD
  Body weight: 20.3 ± 0.8 g
DSS + 1 mg/kg/day oral, day 0 (DSS last day), score 0-3, mean ± SD
  Fecal scoring average value: 1.2 ± 0.4
DSS + 1 mg/kg/day oral, day 3, score 0-3, mean ± SD
  Fecal scoring average value: 1.7 ± 0.8
DSS + 1 mg/kg/day oral, day 3 of administration, mean ± SD
  Body weight: 14.7 ± 1.3 g
DSS + 1 mg/kg/day oral, day 5, mean ± SD
  Body weight: 15.1 ± 1.5 g
DSS + 1 mg/kg/day oral, day 5, score 0-3, mean ± SD
  Fecal scoring average value: 1.7 ± 0.6
DSS + 1 mg/kg/day oral, day 8, mean ± SD
  Body weight: 18.0 ± 2.4 g
DSS + 1 mg/kg/day oral, day 8, score 0-3, mean ± SD
  Fecal scoring average value: 0.0 ± 0.0
[1]
  Body weight: 19.4 ± 2.2 g
  Colon wet weight: 269.0 ± 8.4
DSS + 1 mg/kg/day oral, day 10, score 0-3, mean ± SD
  Fecal scoring average value: 0.0 ± 0.0
DSS + 1 mg/kg/day oral, day 10 of administration, mean ± SD, 1 mg/kg/day
  Colon length: 6.72 cm and 6.72 ± 0.28 cm
DSS + 1 mg/kg/day oral, day −5 (DSS start, before test substance), C57BL/6J mice, mean ± SD
  Body weight: 20.3 ± 0.9 g
DSS + 1 mg/kg/day oral, day −5 (before test substance), score 0-3 per Table 2, mean ± SD
  Fecal scoring average value: 0.0 ± 0.0
DSS + 10 mg/kg/day oral, day 0 (DSS last day), mean ± SD
  Body weight: 18.9 ± 1.1 g
DSS + 10 mg/kg/day oral, day 0 (DSS last day), score 0-3, mean ± SD
  Fecal scoring average value: 1.2 ± 0.4
DSS + 10 mg/kg/day oral, day 3, mean ± SD
  Body weight: 14.9 ± 1.4 g
DSS + 10 mg/kg/day oral, day 3, score 0-3, mean ± SD
  Fecal scoring average value: 1.3 ± 0.5
DSS + 10 mg/kg/day oral, day 5, mean ± SD
  Body weight: 15.9 ± 1.9 g
DSS + 10 mg/kg/day oral, day 5, score 0-3, mean ± SD
  Fecal scoring average value: 1.7 ± 0.5
DSS + 10 mg/kg/day oral, day 8, mean ± SD
  Body weight: 18.5 ± 2.1 g
DSS + 10 mg/kg/day oral, day 8, score 0-3, mean ± SD
  Fecal scoring average value: 0.0 ± 0.0
[2]
  Body weight: 19.8 ± 1.7 g
  Colon length: 6.32 ± 0.16 cm
  Colon wet weight: 255.0 ± 12.4
DSS + 10 mg/kg/day oral, day 10, score 0-3, mean ± SD
  Fecal scoring average value: 0.0 ± 0.0
DSS + 10 mg/kg/day oral, day −5 (DSS start, before test substance), mean ± SD
  Body weight: 20.1 ± 0.9 g
DSS + 10 mg/kg/day oral, day −5 (before test substance), score 0-3, mean ± SD
  Fecal scoring average value: 0.0 ± 0.0
DSS + 100 mg/kg/day oral, day 0 (DSS last day), mean ± SD
  Body weight: 19.0 ± 1.0 g
DSS + 100 mg/kg/day oral, day 0 (DSS last day), score 0-3, mean ± SD
  Fecal scoring average value: 1.0 ± 0.0
DSS + 100 mg/kg/day oral, day 3, mean ± SD
  Body weight: 15.2 ± 1.8 g
DSS + 100 mg/kg/day oral, day 3, score 0-3, mean ± SD
  Fecal scoring average value: 1.7 ± 0.8
DSS + 100 mg/kg/day oral, day 5, mean ± SD
  Body weight: 16.7 ± 2.2 g
DSS + 100 mg/kg/day oral, day 5, score 0-3, mean ± SD
  Fecal scoring average value: 1.0 ± 0.0
DSS + 100 mg/kg/day oral, day 8, mean ± SD
  Body weight: 19.8 ± 0.9 g
DSS + 100 mg/kg/day oral, day 8, score 0-3, mean ± SD
  Fecal scoring average value: 0.0 ± 0.0
DSS + 100 mg/kg/day oral, day 10
  Colon wet weight: 238.6
[3]
  Body weight: 21.0 ± 0.7 g
  Colon wet weight: 238.6 ± 11.3
DSS + 100 mg/kg/day oral, day 10, mean ± SD, 100 mg/kg/day
  Colon length: 6.80 cm and 6.80 ± 0.12 cm
DSS + 100 mg/kg/day oral, day 10, score 0-3, mean ± SD
  Fecal scoring average value: 0.0 ± 0.0
DSS + 100 mg/kg/day oral, day −5 (DSS start, before test substance), mean ± SD
  Body weight: 20.1 ± 0.9 g
DSS + 100 mg/kg/day oral, day −5 (before test substance), score 0-3, mean ± SD
  Fecal scoring average value: 0.0 ± 0.0
Group Nos. 3 to 5 (1, 10, 100 mg/kg/day) and Group No. 6 (50 mg/kg/day), in words
  Colon length compared with DSS group: longer length of the colon than DSS group
All treated groups of Table 5, in words
  Colon wet weight compared with DSS group: suppressed weight increases compared with DSS group
